Data from patent US20240122932A1, “Methods of Treating B-Cell Malignancy Using Bcl-2 Inhibitor” (BeiGene Switzerland GmbH, priority 2021, published 2024).

Tested on: patients with R/R B-cell malignancies
Experiment: phase 1 clinical study: safety, tolerability, DLT, MTD
Format: in vivo
Procedure: A phase 1 study (dose escalation and safety expansion) to determine safety, tolerability, maximum tolerated dose ([…]), and recommended phase 2 dose (RP2D) of Compound 1 in patients with R/R B-cell malignancies was conducted. (Table 6-1A).
Dose-escalation (Part 1) occurs in independent cohorts categorized by patient disease type. These cohorts are continued until a recommended Phase 2 dose (RP2D) is identified, which is then used in corresponding expansion cohorts (Part 2).
Part 1 Monotherapy Ramp-Up Schedule and Dose Finding • 1) Cohort 1A: Cohort 1A consists of patients with relapsed/refractory B-cell non-Hodgkin lymphoma (R/R B-cell NHL) excluding mantle cell lymphoma (MCL). These patients are expected to be at low risk of tumor lysis syndrome (low TLS risk), and are treated with a short ramp-up schedule reaching target dose on Day 3. Patients in this cohort receive escalating doses of Compound 1 monotherapy: 40 mg, 80 mg, 160 mg, 320 mg, and 640 mg (unless adjusted by Safety Monitoring Committee [SMC] recommendation). • 2) Cohort 1B is opened, when ≥1 tolerable dose level of Cohort 1A was determined. It consists of patients with low-tumor-burden R/R CLL/SLL. This cohort pursues dose finding, including evaluation of both ramp-up schedule and target dose. Patients increase the ramp-up dose weekly until the target dose for the cohort is reached. The ramp-up steps is 1 mg, 2 mg, 5 mg, 10 mg, 20 mg, 40 mg, 80 mg, 160 mg, 320 mg, and 640 mg (unless adjusted by SMC recommendation). […]. • 3) Cohort 1C: This Cohort consists of patients with high-tumor-burden R/R chronic lymphocytic leukemia/small lymphocytic lymphoma (R/R CLL/SLL). This cohort will not be dosed until the RP2D for Cohort 1B is established. The objective of this cohort is to confirm, in patients with high-tumor-burden CLL/SLL, the safety of the monotherapy ramp-up schedule and RP2D established in patients with low-tumor-burden CLL/SLL. • 4) Cohort 1D: This Cohort consists of patients with R/R MCL. This cohort will not be dosed until the RP2D for Cohort 1B is established. The objective of this cohort is to confirm, in patients with R/R MCL, the safety of the monotherapy ramp-up schedule and RP2D established in patients with low tumor-burden CLL/SLL. • Cohort 1D′: This Cohort consists of patients with R/R MCL. And, the target dosage are 160 and 320 mg. • 5) Cohort 1E: This Cohort consists of patients with R/R waldenstrom macroglobulinemia (R/R WM). This cohort will not be dosed until the RP2D for Cohort 1B is established. The objective of this cohort is to confirm, in patients with R/R WM, the safety of the monotherapy ramp-up schedule and RP2D established in patients with low tumor-burden CLL/SLL.
All dose cohorts would be reviewed by a safety monitoring committee (SMC) before opening subsequent dose levels or declaring an MTD/RP2D.
The study also includes dose escalation and expansion cohorts for the combination of Compound 1 and Bruton tyrosine kinase (BTK) inhibitor Zanubrutinib in patients with selected B-cell malignancy, such as CLL/SLL and mantle cell lymphoma (MCL). (Table 6-2A). Patients in the combination therapy cohorts receive Zanubrutinib 320 mg daily (160 mg twice a day [BID] or 320 mg once a day [QD]) beginning 8-12 weeks before Compound 1 is introduced. And, the corresponding dose-escalation and expansion are conducted in Part 3 and Part 4):
Dose finding is pursued in Patients with R/R CLL/SLL or R/R MCL who are Bel-2-inhibitor naive and have not progressed on a BTK inhibitor, including evaluation of ramp-up schedule and target dose of Compound 1 when used in combination with Zanubrutinib. The Compound 1 dose vary but the Zanubrutinib dose is fixed at 320 mg/day (160 mg twice daily or 320 mg once daily). The ramp-up dose increases weekly until the target dose for the cohort is reached. […]

[1] = 36 patients, monotherapy N = 25, combination therapy N = 11
[2] = 58 patients, monotherapy n = 32, combination n = 26

CC(C)c1ccccc1[C@@H]1CCCN1C1CC2(CCN(c3ccc(C(=O)NS(=O)(=O)c4ccc(NCC5CCC(C)(O)CC5)c([N+](=O)[O-])c4)c(Oc4cnc5[nH]ccc5c4)c3)CC2)C1 (stereo partly drawn) [Compound 1, 2-((1H-pyrrolo[2,3-b]pyridin-5-yl)oxy)-N-((4-((((1r,4r)-4-hydroxy-4-methylcyclohexyl)methyl)amino)-3-nitrophenyl)sulfonyl)-4-(2-((S)-2-(2-isopropylphenyl)pyrrolidin-1-yl)-7-azaspiro[3.5]nonan-7-yl)benzamide]
AEs, n (%): AEs leading to discontinuation of Compound 1 [1]: 1 n (%) | AEs, n (%): AEs leading to dose reduction of Compound 1 [1]: 0 n (%) | AEs, n (%): AEs leading to hold of Compound 1 [1]: 4 n (%) | AEs, n (%): Grade ≥3 AEs [1]: 11 n (%) | AEs, n (%): Serious AEs [1]: 9 n (%) | AEs, n (%): Total [1]: 22 n (%) | AEs, n (%): Leading to death (36 patients, monotherapy N = 25, combination therapy N = 11, neither death related to study drug): 2 n (%) | Diarrhea, All Grade, n (%) [2]: 8 n (%) | Diarrhea, Grade ≥3, n (%) [2]: 0 n (%) | Fatigue, All Grade, n (%) [2]: 8 n (%) | Fatigue, Grade ≥3, n (%) [2]: 0 n (%) | Headache, All Grade, n (%) [2]: 5 n (%) | Headache, Grade ≥3, n (%) [2]: 0 n (%) | Nausea, All Grade, n (%) [2]: 12 n (%) | Nausea, Grade ≥3, n (%) [2]: 0 n (%) | DLTs (Cohort 1A NHL, monotherapy, 40-mg (n=3), 80-mg (n=4) and 320-mg (n=3) dose cohorts): no disease-limiting toxicities (DLTs) | DLTs (Cohort 1A NHL, monotherapy, 160-mg (n=3+1) dose cohort): one DLT of grade 3 febrile neutropenia | MTD (Cohort 1A NHL, monotherapy, all dose cohorts completed): no MTD reached through 640 mg | DLTs (Cohort 1B R/R CLL, monotherapy, 80 mg target dose level (n=4)): one DLT of grade 4 neutropenia | patients with grade ≥3 neutropenia (monotherapy): 5 patients | patients with neutropenia (monotherapy): 6 patients | Abdominal Pain, All Grade, n (%) (monotherapy n = 32): 4 n (%) | Abdominal Pain, Grade ≥3, n (%) (monotherapy n = 32): 2 n (%) | Constipation, All Grade, n (%) (monotherapy n = 32): 5 n (%) | Constipation, Grade ≥3, n (%) (monotherapy n = 32): 0 n (%) | Dizziness, All Grade, n (%) (monotherapy n = 32): 5 n (%) | Dizziness, Grade ≥3, n (%) (monotherapy n = 32): 0 n (%) | Fall, All Grade, n (%) (monotherapy n = 32): 5 n (%) | Fall, Grade ≥3, n (%) (monotherapy n = 32): 2 n (%) | Neutropenia, All Grade, n (%) (monotherapy n = 32): 8 n (%) | Neutropenia, Grade ≥3, n (%) (monotherapy n = 32): 6 n (%) | Oedema peripheral, All Grade, n (%) (monotherapy n = 32): 4 n (%) | Oedema peripheral, Grade ≥3, n (%) (monotherapy n = 32): 0 n (%) | Pyrexia, All Grade, n (%) (monotherapy n = 32): 6 n (%) | Pyrexia, Grade ≥3, n (%) (monotherapy n = 32): 1 n (%) | Thrombocytopenia, All Grade, n (%) (monotherapy n = 32): 4 n (%) | Thrombocytopenia, Grade ≥3, n (%) (monotherapy n = 32): 2 n (%) | Urinary tract infection, All Grade, n (%) (monotherapy n = 32): 4 n (%) | Urinary tract infection, Grade ≥3, n (%) (monotherapy n = 32): 0 n (%) | laboratory TLS (monotherapy, one high-risk patient with CLL, resolved with no intervention): < 2% | tolerable dose (result of 58 patients, monotherapy or in combination with Zanubrutinib, MTD not yet reached): ≤ 640 mg
